Test results from patent publication US9487510B2, “Substituted heterocyclic acetamides as kappa opioid receptor (KOR) agonists” (Dr. Reddy's Laboratories Ltd., priority 2012, dated 2016).
Where a name gives a salt, the structure may show the parent alone.

biological target: human KOR receptor (Homo sapiens, UniProt P41145); test: IP-One HTRF assay, potency of KOR agonists, dose-response in transiently transfected COS-7 cells; format: cell-based
Sequence (P41145 whole entry): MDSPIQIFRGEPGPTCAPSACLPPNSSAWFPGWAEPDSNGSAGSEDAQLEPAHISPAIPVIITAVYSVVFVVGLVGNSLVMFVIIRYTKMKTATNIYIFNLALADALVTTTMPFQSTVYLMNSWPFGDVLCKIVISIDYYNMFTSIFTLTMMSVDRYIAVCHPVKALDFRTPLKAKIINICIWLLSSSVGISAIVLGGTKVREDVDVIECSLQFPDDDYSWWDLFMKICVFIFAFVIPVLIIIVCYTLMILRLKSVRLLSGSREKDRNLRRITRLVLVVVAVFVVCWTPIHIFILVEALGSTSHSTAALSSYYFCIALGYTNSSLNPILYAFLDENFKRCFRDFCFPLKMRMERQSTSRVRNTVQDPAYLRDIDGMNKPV

Row | Compound | EC50 [nM]
1 | CCN(CC)C(=O)COc1cccc([C@@H](CN2CC[C@H](O)C2)N(C)C(=O)Cc2ccc3sc(=O)[nH]c3c2)c1 [Example 42, N-((S)-1-(3-(2-(diethylamino)-2-oxoethoxy)phenyl)-2-((S)-3-hydroxypyrrolidin-1-yl)ethyl)-N-methyl-2-(2-oxo-2,3-dihydrobenzo[d]thiazol-5-yl)acetamide] | ≤ 50
2 | CN(C(=O)Cc1ccc2c(c1)NC(=O)C2)[C@H](CN1CC[C@H](O)C1)c1cc(F)cc(-c2nccs2)c1 [Example 43, N-((S)-1-(3-fluoro-5-(thiazol-2-yl)phenyl)-2-((S)-3-hydroxypyrrolidin-1-yl)ethyl)-N-methyl-2-(2-oxoindolin-6-yl)acetamide] | ≤ 50
3 | CN(C(=O)Cc1ccc2c(c1)NC(=O)C2)[C@H](CN1CC[C@H](O)C1)c1cccc(-c2nnn(C)n2)c1 [Example 44, N-((S)-2-((S)-3-hydroxypyrrolidin-1-yl)-1-(3-(2-methyl-2H-tetrazol-5-yl)phenyl)ethyl)-N-methyl-2-(2-oxoindolin-6-yl)acetamide] | 51 to 100
4 | CC(C)(C(=O)N[C@H](CN1CC[C@H](O)C1)c1ccccc1)c1ccc2oc(=O)[nH]c2c1 [Example 55, N-((S)-2-((S)-3-hydroxypyrrolidin-1-yl)-1-phenylethyl)-2-methyl-2-(2-oxo-2,3-dihydrobenzo[d]oxazol-5-yl)propanamide] | ≤ 50
5 | O=C(Cc1ccc2oc(=O)[nH]c2c1)NC(CN1CCCC1)c1cnn(Cc2ccccc2)c1 (stereo not shown) [Example 62, N-(1-(1-benzyl-1H-pyrazol-4-yl)-2-(pyrrolidin-1-yl)ethyl)-2-(2-oxo-2,3-dihydrobenzo[d]oxazol-5-yl)acetamide] | ≤ 50
6 | CN(C(=O)Cc1ccc2oc(=O)n(Cc3ccccc3)c2c1)[C@H](CN1CCCC1)c1cccc(OCc2ccccc2)c1 [Example 64, (S)-2-(3-benzyl-2-oxo-2,3-dihydrobenzo[d]oxazol-5-yl)-N-(1-(3-(benzyloxy)phenyl)-2-(pyrrolidin-1-yl)ethyl)-N-methylacetamide] | ≤ 50
7 | CN(C(=O)Cc1ccc2oc(=O)n(Cc3cccc(C#N)c3)c2c1)[C@H](CN1CC[C@H](O)C1)c1ccccc1 [Example 66, 2-(3-(3-cyanobenzyl)-2-oxo-2,3-dihydrobenzo[d]oxazol-5-yl)-N-((S)-2-((S)-3-hydroxypyrrolidin-1-yl)-1-phenylethyl)-N-methylacetamide] | ≤ 50
8 | CN(C(=O)Cc1ccc2oc(=O)n(Cc3ccc(C#N)cc3)c2c1)[C@H](CN1CC[C@H](O)C1)c1ccccc1 [Example 75, 2-(3-(4-cyanobenzyl)-2-oxo-2,3-dihydrobenzo[d]oxazol-5-yl)-N-((S)-2-((S)-3-hydroxypyrrolidin-1-yl)-1-phenylethyl)-N-methylacetamide] | ≤ 50
9 | CN(C(=O)Cc1ccc2c(c1)NS(=O)(=O)C2)[C@H](CN1CC[C@H](O)C1)c1cccc(-c2nn[nH]n2)c1 [Example 79, N-((S)-1-(3-(1H-tetrazol-5-yl)phenyl)-2-((S)-3-hydroxypyrrolidin-1-yl)ethyl)-2-(2,2-dioxido-1,3-dihydrobenzo[c]isothiazol-6-yl)-N-methylacetamide] | ≤ 50
10 | CN(C(=O)Cc1ccc2c(c1)N(C)S(=O)(=O)C2)[C@H](CN1CC[C@H](O)C1)c1cccc(OCC(=O)O)c1 [Example 80, 2-(3-((S)-2-((S)-3-hydroxypyrrolidin-1-yl)-1-(N-methyl-2-(1-methyl-2,2-dioxido-1,3-dihydrobenzo[c]isothiazol-6-yl)acetamido)ethyl)phenoxy)acetic acid] | ≤ 50
11 | CC(C)(C)OC(=O)Cn1c(=O)oc2ccc(CC(=O)N[C@H](CN3CCCC3)c3ccccc3)cc21 [Example 82, (S)-tert-butyl-2-(2-oxo-5-(2-oxo-2-(1-phenyl-2-(pyrrolidin-1-yl)ethylamino)ethyl)benzo[d]oxazol-3(2H)-yl)acetate] | ≤ 50
12 | O=C(O)Cn1c(=O)oc2ccc(CC(=O)N[C@H](CN3CCCC3)c3ccccc3)cc21 [Example 83, (S)-2-(2-oxo-5-(2-oxo-2-(1-phenyl-2-(pyrrolidin-1-yl)ethylamino)ethyl)benzo[d]oxazol-3(2H)-yl)acetic acid hydrochloride] | ≤ 50
13 | O=C(O)COc1cccc([C@@H](CN2CCCC2)NC(=O)Cc2ccc3oc(=O)[nH]c3c2)c1 [Example 85, (S)-2-(3-(1-(2-(2-oxo-2,3-dihydrobenzo[d]oxazol-5-yl)acetamido)-2-(pyrrolidin-1-yl)ethyl)phenoxy)acetic acid hydrochloride] | ≤ 50
14 | CN(C(=O)Cc1ccc2oc(=O)n(CC(=O)O)c2c1)[C@H](CN1CC[C@H](O)C1)c1ccccc1 [Example 86] | ≤ 50
15 | CN(C(=O)Cc1ccc2oc(=O)[nH]c2c1)C(CN1CC[C@H](O)C1)c1cccc(OCC(=O)O)c1 (stereo partly drawn) [Example 94, (S)-2-(3-(2-(3-hydroxypyrrolidin-1-yl)-1-(N-methyl-2-(2-oxo-2,3-dihydrobenzo[d]oxazol-5-yl)acetamido)ethyl)phenoxy)acetic acid triflouro acetate] | ≤ 50
16 | CN(C(=O)Cc1ccc2c(c1)NC(=O)C2)C(CN1CC[C@H](O)C1)c1cccc(OCC(=O)O)c1 (stereo partly drawn) [Example 95, (S)-2-(3-(2-(3-hydroxypyrrolidin-1-yl)-1-(N-methyl-2-(2-oxoindolin-6-yl)acetamido)ethyl)phenoxy) acetic acid hydrochloride] | ≤ 50

Row | Compound | EC50 [nM]
17 | COC(=O)c1ccc(Cn2c(=O)oc3ccc(CC(=O)N(C)[C@H](CN4CC[C@H](O)C4)c4ccccc4)cc32)cc1 [Example 98, Methyl 4-((5-(2-(((S)-2-((S)-3-hydroxypyrrolidin-1-yl)-1-phenylethyl)(methyl)amino)-2-oxoethyl)-2-oxobenzo[d]oxazol-3(2H)-yl)methyl)benzoate] | ≤ 50
18 | CN(C(=O)Cc1ccc2c(c1)NC(=O)C2)[C@H](CN1CC[C@H](O)C1)c1cccc(OCc2nn[nH]n2)c1 [Example 112, N-((S)-1-(3-((2H-tetrazol-5-yl)methoxy)phenyl)-2-((S)-3-hydroxypyrrolidin-1-yl)ethyl)-N-methyl-2-(2-oxoindolin-6-yl)acetamide] | 51 to 100
19 | O=C1COc2ccc(CC(=O)N[C@H](CN3CCCC3)c3ccccc3)cc2N1 [Example 114, (S)-2-(3-oxo-3,4-dihydro-2H-benzo[b][1,4]oxazin-6-yl)-N-(1-phenyl-2-(pyrrolidin-1-yl)ethyl)acetamide] | ≤ 50
20 | O=C(Cc1ccc2sc(=S)[nH]c2c1)N[C@H](CN1CC[C@H](O)C1)c1ccccc1 [Example 118, N-((S)-2-((S)-3-hydroxypyrrolidin-1-yl)-1-phenylethyl)-2-(2-thioxo-2,3-dihydrobenzo[d]thiazol-5-yl)acetamide] | ≤ 50
21 | O=C1CS(=O)(=O)c2ccc(CC(=O)N[C@H](CN3CCCC3)c3ccccc3)cc2N1 [Example 121, (S)-2-(1,1-dioxido-3-oxo-3,4-dihydro-2H-benzo[b][1,4]thiazin-6-yl)-N-(1-phenyl-2-(pyrrolidin-1-yl)ethyl)acetamide] | ≤ 50
22 | O=C1CS(=O)(=O)c2ccc(CC(=O)N[C@H](CN3CC[C@H](O)C3)c3ccccc3)cc2N1 [Example 122, 2-(1,1-dioxido-3-oxo-3,4-dihydro-2H-benzo[b][1,4]thiazin-6-yl)-N-((S)-2-((S)-3-hydroxypyrrolidin-1-yl)-1-phenylethyl)acetamide] | ≤ 50
23 | CN(C(=O)Cc1ccc2c(c1)NC(=O)CS2(=O)=O)[C@H](CN1CC[C@H](O)C1)c1cccc(C(F)(F)F)c1 [Example 123, 2-(1,1-dioxido-3-oxo-3,4-dihydro-2H-benzo[b][1,4]thiazin-6-yl)-N-((S)-2-((S)-3-hydroxypyrrolidin-1-yl)-1-(3-(trifluoromethyl)phenyl)ethyl)-N-methylacetamide] | ≤ 50
24 | CN(C(=O)Cc1ccc2c(c1)NC(=O)CS2(=O)=O)[C@H](CN1CC[C@H](O)C1)c1cccc(F)c1 [Example 124, 2-(1,1-dioxido-3-oxo-3,4-dihydro-2H-benzo[b][1,4]thiazin-6-yl)-N-((S)-1-(3-fluorophenyl)-2-((S)-3-hydroxypyrrolidin-1-yl)ethyl)-N-methylacetamide] | ≤ 50
25 | CN(C(=O)Cc1ccc2c(c1)NC(=O)CS2(=O)=O)[C@H](CN1CC[C@H](O)C1)C1CCCCC1 [Example 125, N-((S)-1-cyclohexyl-2-((S)-3-hydroxypyrrolidin-1-yl)ethyl)-2-(1,1-dioxido-3-oxo-3,4-dihydro-2H-benzo [b][1,4]thiazin-6-yl)-N-methylacetamide] | ≤ 50
26 | COc1cccc([C@@H](CN2CC[C@H](O)C2)N(C)C(=O)Cc2ccc3c(c2)NC(=O)CS3(=O)=O)c1 [Example 126, 2-(1,1-dioxido-3-oxo-3,4-dihydro-2H-benzo[b][1,4]thiazin-6-yl)-N-((S)-2-((S)-3-hydroxypyrrolidin-1-yl)-1-(3-methoxyphenyl)ethyl)-N-methylacetamide] | ≤ 50
27 | O=C1CSc2ccc(CC(=O)N[C@H](CN3CCCC3)c3ccccc3)cc2N1 [Example 127, (S)-2-(3-oxo-3,4-dihydro-2H-benzo [b][1,4]thiazin-6-yl)-N-(1-phenyl-2-(pyrrolidin-1-yl)ethyl)acetamide] | ≤ 50
28 | O=C1CSc2ccc(CC(=O)N[C@H](CN3CC[C@H](O)C3)c3ccccc3)cc2N1 [Example 128, N-((S)-2-((S)-3-hydroxypyrrolidin-1-yl)-1-phenylethyl)-2-(3-oxo-3,4-dihydro-2H-benzo[b][1,4]thiazin-6-yl)acetamide] | ≤ 50
29 | CN(C(=O)Cc1ccc2c(c1)NC(=O)CS2)[C@H](CN1CCCC1)c1ccccc1 [Example 129, (S)-N-methyl-2-(3-oxo-3,4-dihydro-2H-benzo [b][1,4]thiazin-6-yl)-N-(1-phenyl-2-(pyrrolidin-1-yl)ethyl)acetamide] | ≤ 50
30 | CN(C(=O)Cc1ccc2c(c1)NC(=O)CS2)C(CN1CC[C@H](O)C1)C1CCOCC1 (stereo partly drawn) [Example 130, N-(2-((S)-3-hydroxypyrrolidin-1-yl)-1-(tetrahydro-2H-pyran-4-yl)ethyl)-N-methyl-2(3-oxo-3,4-dihydro-2H-benzo[b][1,4]thiazin-6-yl)acetamide] | ≤ 50
31 | COc1cccc([C@@H](CN2CC[C@H](O)C2)N(C)C(=O)Cc2ccc3c(c2)NC(=O)CS3)c1 [Example 131, N-((S)-2-((S)-3-hydroxypyrrolidin-1-yl)-1-(3-methoxyphenyl)ethyl)-N-methyl-2-(3-oxo-3,4-dihydro-2H-benzo[b][1,4]thiazin-6-yl)acetamide] | ≤ 50
